target: EGFR (human) (UniProt P00533); details: a431
Sequence (P00533 whole entry, looked up): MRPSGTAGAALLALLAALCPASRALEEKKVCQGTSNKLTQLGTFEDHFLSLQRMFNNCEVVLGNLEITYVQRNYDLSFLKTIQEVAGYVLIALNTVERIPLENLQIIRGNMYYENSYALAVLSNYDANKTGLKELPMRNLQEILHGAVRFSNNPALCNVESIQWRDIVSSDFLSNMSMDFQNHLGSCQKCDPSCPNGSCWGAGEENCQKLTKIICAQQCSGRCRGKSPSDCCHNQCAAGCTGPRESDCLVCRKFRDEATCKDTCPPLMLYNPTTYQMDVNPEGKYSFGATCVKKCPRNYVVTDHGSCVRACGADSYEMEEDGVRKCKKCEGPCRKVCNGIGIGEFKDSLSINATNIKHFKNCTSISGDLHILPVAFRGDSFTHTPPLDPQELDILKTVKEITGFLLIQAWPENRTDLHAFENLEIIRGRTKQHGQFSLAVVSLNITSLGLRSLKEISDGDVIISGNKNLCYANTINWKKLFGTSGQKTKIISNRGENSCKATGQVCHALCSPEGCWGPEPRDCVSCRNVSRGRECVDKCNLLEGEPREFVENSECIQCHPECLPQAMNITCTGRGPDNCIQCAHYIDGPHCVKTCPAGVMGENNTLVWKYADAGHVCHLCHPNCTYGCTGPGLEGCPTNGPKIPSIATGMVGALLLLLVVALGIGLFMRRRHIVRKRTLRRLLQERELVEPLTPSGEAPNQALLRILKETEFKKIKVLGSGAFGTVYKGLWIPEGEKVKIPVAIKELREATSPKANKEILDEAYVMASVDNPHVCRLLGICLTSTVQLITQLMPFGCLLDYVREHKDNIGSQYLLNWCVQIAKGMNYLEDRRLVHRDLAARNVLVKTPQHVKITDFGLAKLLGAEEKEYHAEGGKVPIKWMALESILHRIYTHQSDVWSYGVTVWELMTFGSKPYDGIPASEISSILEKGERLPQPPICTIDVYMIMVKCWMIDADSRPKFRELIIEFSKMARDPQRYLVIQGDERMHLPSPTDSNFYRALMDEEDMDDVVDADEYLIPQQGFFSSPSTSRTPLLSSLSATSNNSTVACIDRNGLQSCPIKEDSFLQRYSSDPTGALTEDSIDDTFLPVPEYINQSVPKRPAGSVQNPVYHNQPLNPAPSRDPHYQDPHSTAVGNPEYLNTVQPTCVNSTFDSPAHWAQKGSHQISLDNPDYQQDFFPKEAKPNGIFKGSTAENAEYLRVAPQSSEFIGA

| SMILES | IC50 [nM] |
| --- | --- |
| CCN(CC)CCN1CCc2[nH]c(C=C3C(=O)Nc4cccc(-c5ccc(Cl)cc5F)c43)c(C)c2C1=O | 3230 |
| CCN(CC)CCN1CCc2[nH]c(C=C3C(=O)Nc4cccc(-c5cccc(Cl)c5F)c43)c(C)c2C1=O | 7320 |
| CCN(CC)CCN1CCc2[nH]c(C=C3C(=O)Nc4cccc(CCO)c43)c(C)c2C1=O | 3850 |
| Cc1c(C=C2C(=O)Nc3cccc(CCO)c32)[nH]c2c1C(=O)N(CCN1CCCC1)CC2 | 1680 |
| Cc1c(C=C2C(=O)Nc3cccc(-c4cccc(F)c4F)c32)[nH]c2c1C(=O)N(CCN1CCCC1)CC2 | 2190 |
| Cc1c(C=C2C(=O)Nc3cccc(-c4cccc(Cl)c4F)c32)[nH]c2c1C(=O)N(CCN1CCOCC1)CC2 | 6110 |
| Cc1c(C=C2C(=O)Nc3ccc(NS(C)(=O)=O)cc32)[nH]c2c1C(=O)N(CCN1CCOCC1)CC2 | 2850 |
| CCN(CC)CCN1CCc2[nH]c(C=C3C(=O)Nc4c(N)cc(F)cc43)c(C)c2C1=O | 12600 |
| CCN(CC)CCN1CCc2[nH]c(C=C3C(=O)Nc4ccc(OC)cc43)c(C)c2C1=O | 4350 |
| Cc1c(C=C2C(=O)Nc3ncc(Br)cc32)[nH]c2c1C(=O)N(CCN1CCCCC1)CC2 | 1660 |
| Cc1c(C=C2C(=O)Nc3ncc(Br)cc32)[nH]c2c1C(=O)N(CCN1CCOCC1)CC2 | 15900 |
| Cc1c(C=C2C(=O)Nc3cccc(C4CCNCC4)c32)[nH]c2c1C(=O)N(CCN1CCOCC1)CC2 | 1900 |
| Cc1c(C=C2C(=O)Nc3cccc(CCO)c32)[nH]c2c1C(=O)N(CCN1CCOCC1)CC2 | 16500 |
| Cc1c(C=C2C(=O)Nc3cccc(-c4cccc(Cl)c4F)c32)[nH]c2c1C(=O)N(CCN1CCCC1)CC2 | 13800 |
| CCN(CC)CCN1CCc2[nH]c(C=C3C(=O)Nc4ccc(-c5ccc(OC)cc5)cc43)c(C)c2C1=O | 3890 |
| Cc1c(C=C2C(=O)Nc3ccc(Cl)cc32)[nH]c2c1C(=O)N(CCN1CCOCC1)CC2 | 10200 |
| COCC(=O)Nc1cc2c(cc1F)C(=Cc1[nH]c3c(c1-c1ccc(F)cc1)C(=O)NCC3)C(=O)N2 | 2030 |
| CCN(CC)CCN1CCc2[nH]c(C=C3C(=O)Nc4cc(N)c(F)cc43)c(C)c2C1=O | 10500 |
| CCN(CC)CCN1CCc2[nH]c(C=C3C(=O)Nc4cc(NC(C)=O)c(F)cc43)c(C)c2C1=O | 9290 |
| CCN(CC)CCN1CCc2[nH]c(C=C3C(=O)Nc4c(NC(C)=O)cc(F)cc43)c(C)c2C1=O | 1380 |
| O=C(CO)Nc1cc2c(cc1F)C(=Cc1[nH]c3c(c1-c1ccc(F)cc1)C(=O)NCC3)C(=O)N2 | 3060 |
| Cc1c(C=C2C(=O)Nc3cc(N)c(F)cc32)[nH]c2c1C(=O)N(CCN1CCCC1)CC2 | 10700 |

Other lines, results leading:

| IC50 [nM] | SMILES |
| --- | --- |
| 1090 | CCN(CC)CCN1CCc2[nH]c(C=C3C(=O)Nc4ccc(F)cc43)c(C)c2C1=O |
| 120 | Cc1c(C=C2C(=O)Nc3ccc(NC=O)cc32)[nH]c2c1C(=O)N(CCN1CCCCC1)CC2 |
| 330 | CCN(CC)CCN1CCc2[nH]c(C=C3C(=O)Nc4cccc(Br)c43)c(C)c2C1=O |
| 370 | CCN(CC)CCN1CCc2[nH]c(C=C3C(=O)Nc4cc(NC=O)c(F)cc43)c(C)c2C1=O |
| 200 | Cc1c(C=C2C(=O)Nc3cccc(Br)c32)[nH]c2c1C(=O)N(CCN1CCCC1)CC2 |
| 67 | CCN(CC)CCN1CCc2[nH]c(C=C3C(=O)Nc4ncnc(Nc5ccc(F)c(Cl)c5)c43)c(C)c2C1=O |
| 1350 | Cc1c(C=C2C(=O)Nc3ccc(F)cc32)[nH]c2c1C(=O)N(CCN1CCOCC1)CC2 |
| 840 | CCN(CC)CCN1CCc2[nH]c(C=C3C(=O)Nc4ccc(NC=O)cc43)c(C)c2C1=O |
| 330 | Cc1c(C=C2C(=O)Nc3ncnc(Nc4ccc(F)c(Cl)c4)c32)[nH]c2c1C(=O)N(CCN1CCOCC1)CC2 |
| 350 | CCN(CC)CCN1CCc2[nH]c(C=C3C(=O)Nc4cccc(C5CCNCC5)c43)c(C)c2C1=O |
| 1040 | CCN(CC)CCN1CCc2[nH]c(C=C3C(=O)Nc4ccc(Cl)cc43)c(C)c2C1=O |
| 1310 | Cc1c(C=C2C(=O)Nc3ccc(F)cc32)[nH]c2c1C(=O)N(CCN1CCCC1)CC2 |
| 180 | Cc1c(C=C2C(=O)Nc3cccc(-c4cccc(F)c4)c32)[nH]c2c1C(=O)N(CCN1CCCCC1)CC2 |
| 1260 | CCN(CC)CCN1CCc2[nH]c(C=C3C(=O)Nc4ccc(Br)cc43)c(C)c2C1=O |
| 590 | Cc1c(C=C2C(=O)Nc3cccc(C4CCNCC4)c32)[nH]c2c1C(=O)N(CCN1CCCC1)CC2 |
| 1380 | CCN(CC)CCN1CCc2[nH]c(C=C3C(=O)Nc4c(NC=O)cc(F)cc43)c(C)c2C1=O |
| 270 | Cc1c(C=C2C(=O)Nc3c(Br)cc(F)cc32)[nH]c2c1C(=O)N(CCN1CCCCC1)CC2 |
| 340 | Cc1c(C=C2C(=O)Nc3cc(NCc4ccc(F)cc4)c(F)cc32)[nH]c2c1C(=O)N(CCN1CCCCC1)CC2 |
| 1250 | Cc1c(C=C2C(=O)Nc3cc(NC(=O)CO)c(F)cc32)[nH]c2c1C(=O)N(CCN1CCCCC1)CC2 |
| 380 | CCN(CC)CCN1CCc2[nH]c(C=C3C(=O)Nc4cccc(-c5cccc(F)c5F)c43)c(C)c2C1=O |
| 530 | Cc1c(C=C2C(=O)Nc3cccc(-c4c(F)cccc4F)c32)[nH]c2c1C(=O)N(CCN1CCCCC1)CC2 |

— the Kinase Knowledgebase extract (Sharma et al. 2016)
